# Reference: patent US20240082416A1, “AMATOXIN ANALOGS AND USES THEREOF” (THE UNIVERSITY OF BRITISH COLUMBIA, priority 2020, published 2024)
# Several values for one entry are separate records, joined by “and”; a condition that tells them apart may be missing. Equal entries are not always repeated. Starred links: 1 amine or outer side, 2 acyl side, 3 side chain; linkers in the order of their positions; H or OH if unused. Positions of bridges follow the written chain, without caps; N, C: chain ends. Non-standard residues stand in square brackets, D forms with d. Residues, ends and D or L forms follow the SMILES beside them. X4 = CC(C)(C)OC(=O)/N=C(\N)N[C@@H]1C[C@@H](C(=O)[*:2])N([*:1])C1; Trp(2-yl) = O=C([C@H](Cc1c([*:3])[nH]c2ccccc12)N[*:1])[*:2]; Ile(4R-OH,5-OH) = C[C@H]([C@H](N)C(=O)O)[C@@H](O)CO; X3 = CC(=O)NCS[C@@H]1C[C@@H](C(=O)[*:2])N([*:1])C1; X5 = COC(=O)N[C@@H]1C[C@@H](C(=O)[*:2])N([*:1])C1
# Key:
# [1] = Viability assay against CHO cells (MTT colorimetric assay); assay type: cell-based, Chinese hamster; details: Chinese hamster, CHO cells, 72 h, replicates n = 1, 2, 3, read-out: % viable cells; for viability at 72 h, 1.25e-06 M: 1.25e-006 M; for viability at 72 h, 1.56e-07 M: 1.56e-007 M; for viability at 72 h, 2.5e-06 M: 2.5e-006 M; for viability at 72 h, 5e-06 M: 5e-006 M; for viability at 72 h, 6.25e-07 M: 6.25e-007 M; for viability at 72 h, 7.8e-08 M: 7.8e-008 M
# Method: (§1) (f) Cell culture: Cells were cultured in Minimum Essential Medium Eagle—Alpha Modification (α-MEM) or […] Dulbecco's Modified Eagle Medium (DMEM), purchased from Gibco. […] All cell culture plastic ware was obtained from Coming or Falcon. Cells were cultured at 37° C. in a humidified chamber with 5% CO2. When used in cell culture, DMSO was purified by filtration through a […] filter. All experiments were carried out in a laminar flow culture cabinet, unless otherwise noted.
# (§2) Immortalized CHO cells had been stored in liquid nitrogen. To revive cells, a 1-mL tube of the frozen cells in medium containing 10% DMSO was warmed in a 30° C. water bath and diluted with 9 mL of fresh media. Media contained 10% FBS and 100 U/mL penicillin and […] streptomycin, unless otherwise indicated. The cells were incubated in a T-25 flask at 37° C. at 5% CO2. After 24 hours, the medium was aspirated and replaced with fresh medium. When cells reached a level of 90-100% confluence, they were sub-cultured. […] Once the cells were detached from the tissue culture flask, 3-5 mL media was added to quench the trypsin and the mixture was transferred to a 10 mL centrifuge tube. The mixture was centrifuged for 5 min at […], and the supernatant was discarded. The cells were suspended in fresh medium, diluted as required, and transferred to a new culture flask.
# (§3) To assay cell viability, a nearly confluent tissue culture flask was trypsinized, and the cells were counted following treatment with Trypan blue, using a hemocytometer. The cells were then diluted to the appropriate stock concentrations in fresh medium and transferred in 100 μL to a 96-well plate using a multi-channel pipette. The number of cells plated varied from experiment to experiment. These were incubated at 37° C. and 5% CO2 for a 24-hour period to allow for adherence. The medium was aspirated, and fresh medium was added, which contained the desired additives in DMSO. The cells were then re-incubated for 72 h. At the completion of the experiment, a 100 μL aliquot of 25 mg/mL MTT in phosphate-buffered saline (PBS) was added to each well. The plate was incubated three hours further to allow for the formation of the formazan product in viable cells. The media was carefully aspirated, and the purple product was solubilized in DMSO. […] Data was processed in Microsoft Excel and GraphPad Prism. Experiments were performed in triplicates unless otherwise noted, and the error bars were calculated as the standard error of the mean.
# (§4) Each cell line was plated in a 96-well plate, with 100 μL of the stock solution per well (5000 cells per well) and incubated for 24 hours. […] The cells were incubated for 72 hours, at which point viability was assessed as described.
# [2] = tested on: CHO cells; experiment: as above; assay type: cell-based, Chinese hamster; details: 72 h, replicates n = 1, 2, 3
# Method: as §1, §2, §3, §4
# [3] = target: T1, Pol II (Homo sapiens, UniProt P24928); experiment: In vitro transcription runoff assay using HeLaScribe nuclear extract; assay type: biochemical; details: for IC50: IC50 (nM), Table 12, n = 3, high values estimated from activity at [I]=1.0 μM
# T1 construct: HeLaScribe® nuclear extract containing Pol II and all other transcription factors; purchased Promega; host or cells: HeLa nuclear extract (endogenous protein)
# Source text: (h) In vitro transcription assay of synthetic amanitins containing analogs of Hyp: Primers were purchased from IDT via standard phosphoramidite chemistry. dNTP and rNTP were purchased from Thermofisher. GoTaq polymerase and HeLaScribe*Nuclear Extract in vitro Transcription System was purchased from Promega. Taq polymerase was purchased from NEB. [^32P] α-dGTP (3000 Ci/mmol 10 mCi/ml EasyTide) and [^32P] α-GTP (3000 Ci/mmol 10 mCi/ml EasyTide) were purchased from Perkin Elmer. QIAquick PCR purifcation kit was purchased from Qiagen. AcGFP1-N1 was a gift (Addgene plasmid #54705; http://n2t.net/addgene:54705; RRID:Addgene_54705). DNA Primer sequences were:
# The DNA template for transcription runoff was synthesized by PCR with template pAcGFP-N1, and primers P1 and P2. To a final volume of 20 μL, 1 x GoTaq Buffer, 250 μM of each dNTP, 500 nM of each primers P1 and P2, […] pAcGFP-N1 and 0.05 U/μL GoTaq were employed to thermocycle for 30 cycles (30 s at 95° C., 30 s at 50° C. and 60 s at 72° C., Bio-Rad). A 1 μL aliquot of the amplified solution was resolved with 6×DNA loading dye in a 1% agarose gel containing […] and then visualized using GelDoc XR imager (Bio-Rad). Purification was completed via QIAquick PCR purification kit (Qiagen). The radioactive chromatographic standard was synthesized by PCR with template pAcGFP-N1, and primers P3 and P4. To a final volume of 50 μL, 1 x Thermopol Buffer, 200 μM of each dNTP, 500 nM of each primers P3 and P4, 10 pg/μL pAcGFP-N1 and 0.02 U/μL Vent polymerase, 1 μL [^32P] α-dGTP were employed to thermocycle for 30 cycles (30 s at 95° C., 30 s at 62° C. and 30 s at 72° C., Bio-Rad). A 1 μL aliquot of the amplified solution was resolved with 6×DNA loading dye in 8% denaturing PAGE and then visualized by autoradiography via the Typhoon 9200 imager (Molecular namics-Amersham-GE). Purification was completed via QIAquick PCR purification kit (Qiagen). The transcription runoff assay was modified from HeLaScribe® Nuclear Extract in vitro Transcription System (Promega). […]. The pellet was resolved by 8% denaturing PAGE and then visualized by autoradiography via the Typhoon 9200 imager (Molecular dynamics-Amersham-GE). Dosimetry was calculated by ImageJ, and the 3 parameter logistic fit was completed by Origin 2019 (OriginLab). […]
# All data were presented in mean±standard deviation (n=3).
smiles,measurement,setting,value
"CC[C@H](C)[C@@H]1NC(=O)CNC(=O)[C@@H]2Cc3c([nH]c4ccccc34)SC[C@H](NC(=O)CNC1=O)C(=O)N[C@@H](CC(N)=O)C(=O)N1C[C@H](N/C(N)=N/C(=O)OC(C)(C)C)C[C@H]1C(=O)N[C@@H]([C@@H](C)[C@@H](O)CO)C(=O)N2 [Compound 9, Boc-Gdn-Pro-amanitin] (cyclo(CN[X4][Ile(4R-OH,5-OH)][Trp(2-yl)]GIG); thioether 1-5)","viability at 72 h, 1.25e-06 M",[1],84%
same,"viability at 72 h, 1.56e-07 M",[1],87%
same,"viability at 72 h, 2.5e-06 M",[1],86%
same,"viability at 72 h, 3.9e-08 M",[1]; 3.9e-008 M,88%
same,"viability at 72 h, 5e-06 M",[1],86%
same,"viability at 72 h, 6.25e-07 M",[1],84%
same,"viability at 72 h, 7.8e-08 M",[1],85%
same,% viable cells,"[2]; 1e-005 M, listed as Boc-Gdn-Pro-amanitin (9)",103% and 98% and 119%
same,% viable cells,"[2]; 1.25e-006 M, listed as Boc-Gdn-Pro-amanitin (9)",89% and 100%
same,% viable cells,"[2]; 1.56e-007 M, listed as Boc-Gdn-Pro-amanitin (9)",97%
same,% viable cells,"[2]; 2.5e-006 M, listed as Boc-Gdn-Pro-amanitin (9)",100%
same,% viable cells,"[2]; 3.125e-007 M, listed as Boc-Gdn-Pro-amanitin (9)",82% and 90% and 103%
same,% viable cells,"[2]; 3.9e-008 M, listed as Boc-Gdn-Pro-amanitin (9)",102%
same,% viable cells,"[2]; 5e-006 M, listed as Boc-Gdn-Pro-amanitin (9)",104%
same,% viable cells,"[2]; 6.25e-007 M, listed as Boc-Gdn-Pro-amanitin (9)",102%
same,% viable cells,"[2]; 7.8e-008 M, listed as Boc-Gdn-Pro-amanitin (9)",101%
same,IC50,[3],> 600 nM
same,inhibitory effects,[3]; up to 1 μM concentrations,did not exhibit any noticeable inhibitory effects
"CC[C@H](C)[C@@H]1NC(=O)CNC(=O)[C@@H]2Cc3c([nH]c4ccccc34)SC[C@H](NC(=O)CNC1=O)C(=O)N[C@@H](CC(N)=O)C(=O)N1C[C@H](SCNC(C)=O)C[C@H]1C(=O)N[C@@H]([C@@H](C)[C@@H](O)CO)C(=O)N2 [Compound 8, SAcm-Pro-amanitin] (cyclo(CN[X3][Ile(4R-OH,5-OH)][Trp(2-yl)]GIG); thioether 1-5)",% viable cells,"[2]; 1e-005 M, listed as SAcm-Pro-amanitin (8)",90% and 99%
same,% viable cells,"[2]; 1.25e-006 M, listed as SAcm-Pro-amanitin (8)",85% and 92% and 106%
same,% viable cells,"[2]; 1.56e-007 M, listed as SAcm-Pro-amanitin (8)",94% and 93% and 113%
same,% viable cells,"[2]; 2e-005 M, listed as SAcm-Pro-amanitin (8)",110% and 105% and 99%
same,% viable cells,"[2]; 2.5e-006 M, listed as SAcm-Pro-amanitin (8)",87% and 92% and 105%
same,% viable cells,"[2]; 3.125e-007 M, listed as SAcm-Pro-amanitin (8)",88% and 93% and 110%
same,% viable cells,"[2]; 5e-006 M, listed as SAcm-Pro-amanitin (8)",86% and 89%
same,% viable cells,"[2]; 6.25e-007 M, listed as SAcm-Pro-amanitin (8)",93% and 90% and 108%
same,IC50,[3],> 1000 nM
"CC[C@H](C)[C@@H]1NC(=O)CNC(=O)[C@@H]2Cc3c([nH]c4ccccc34)SC[C@H](NC(=O)CNC1=O)C(=O)N[C@@H](CC(N)=O)C(=O)N1C[C@H](NC(=O)OC)C[C@H]1C(=O)N[C@@H]([C@@H](C)[C@@H](O)CO)C(=O)N2 [Compound 32, MeOCONH-Pro-amanitin] (cyclo(CN[X5][Ile(4R-OH,5-OH)][Trp(2-yl)]GIG); thioether 1-5)","viability at 72 h, 1e-05 M",[1]; 1e-005 M,86%
same,"viability at 72 h, 1.25e-06 M",[1],89%
same,"viability at 72 h, 1.56e-07 M",[1],88%
same,"viability at 72 h, 2e-05 M",[1]; 2e-005 M,99%
same,"viability at 72 h, 2.5e-06 M",[1],88%
same,"viability at 72 h, 3.125e-07 M",[1]; 3.125e-007 M,89%
same,"viability at 72 h, 5e-06 M",[1],92%
same,"viability at 72 h, 6.25e-07 M",[1],91%
same,"viability at 72 h, 7.8e-08 M",[1],88%
same,% viable cells,"[2]; 1e-005 M, listed as MeOCOHN-Pro-amanitin (32)",96%
same,% viable cells,"[2]; 1.25e-006 M, listed as MeOCOHN-Pro-amanitin (32)",93%
same,% viable cells,"[2]; 1.56e-007 M, listed as MeOCOHN-Pro-amanitin (32)",87% and 96%
same,% viable cells,"[2]; 2e-005 M, listed as MeOCOHN-Pro-amanitin (32)",103% and 102%
same,% viable cells,"[2]; 3.125e-007 M, listed as MeOCOHN-Pro-amanitin (32)",87% and 94%
same,% viable cells,"[2]; 5e-006 M, listed as MeOCOHN-Pro-amanitin (32)",87%
same,% viable cells,"[2]; 6.25e-007 M, listed as MeOCOHN-Pro-amanitin (32)",98%
same,% viable cells,"[2]; 7.8e-008 M, listed as MeOCOHN-Pro-amanitin (32)",97%
